Reference: patent publication US10759865B2, “Treatment of diabetes mellitus” (priority 2017, dated 2020)
Where a name gives a salt, the structure may show the parent alone.

System: patient diagnosed with IDDM
Experiment: treatment of a IDDM patient, blood IDDM markers over time
Format: in vivo, human
Parameters: Insulin Auto Ab (<0.4) / IA2 Ab (Islet cell Ab Screen) (<0.8) / Glucose / Insulin (2-19.6) / HgbA1C / GAD-65 (<5): unit not given here
Method: A patient diagnosed with IDDM was treated with 8 units of exogenous long-acting insulin per day (administered in the evening) and 1 unit of short-acting insulin per 6 grams of carbohydrate food intake (administered before each meal).
Specific stimulation high-carb diet was introduced occasionally to monitor the patient's pancreatic ability to respond to the glycemic demands.
Each IVIG dose was administered in one continuous infusion session. From week 16 to week 42, the patient was also treated with alpha one antitrypsin.
Throughout the patient's treatment, the patient's blood was drawn at the time points indicated in Tables 1-2 below, and analyzed by established testing laboratories with respect to standard IDDM blood parameters (see Tables 1-2, top row of each table listing the markers assayed; the numerical values in parenthesis after some of the markers indicate normal reference levels).
The patient was dosed at 750 mg intravenously on weeks 87, 88, 89 and 90.
Tables 1 and 2 describe the same treatment but include data points with respect to different markers tested.

[1] = week 19, 8 mg BID, also alpha one antitrypsin
[2] = week 22, 8 mg BID, also alpha one antitrypsin
[3] = week 25, 8 mg BID, also alpha one antitrypsin
[4] = week 26, 16 mg BID, also alpha one antitrypsin
[5] = week 29, 16 mg BID, also alpha one antitrypsin
[6] = week 30, 16 mg BID, also alpha one antitrypsin
[7] = week 36, 16 mg BID, also alpha one antitrypsin
[8] = week 47, 16 mg BID, IVIG 2, 1, 1 mg/Kg in week 44
[9] = week 50, 16 mg BID, IVIG weeks 44, 47.5
[10] = week 53, 16 mg BID, IVIG weeks 44, 47.5, 50.5
[11] = week 57, 16 mg BID, IVIG weeks 44-54
[12] = week 61, 16 mg BID, IVIG weeks 44-54
[13] = week 66, 16 mg BID, IVIG weeks 44-54
[14] = week 70, 16 mg BID, IVIG weeks 44-54
[15] = week 75, 16 mg BID, IVIG weeks 44-54
[16] = week 79, 5 mg QAM & 10 mg QHS, IVIG weeks 44-54
[17] = week 82.5, 10 mg BID, IVIG weeks 44-54
[18] = week 87.5, 10 mg BID, IVIG 2, 1, 1 gm/Kg week 86, Rituxan 750 mg iv week 87
[19] = week 91.25, 10 mg BID, IVIG weeks 86, 89, Rituxan 750 mg iv weeks 87-90
[20] = week 92.25, 10 mg BID, IVIG weeks 86, 89, Rituxan 750 mg iv weeks 87-90
[21] = week 99.25, 10 mg BID, IVIG weeks 86, 89, Rituxan 750 mg iv weeks 87-90

Structure (SMILES): C[C@@H]1CCN(C(=O)CC#N)C[C@@H]1N(C)c1ncnc2[nH]ccc12 [Tofacitinib]
- overall weight and muscle mass (about 10 months post initiation of tofacitinib treatment): gained overall weight and muscle mass
- auto-antibody blood titers (about 10 months post initiation, tofacitinib before IVIG): no further change
- combination effect of tofacitinib treatment and IVIG treatment (human, in vivo): synergistic effect
- need for short-acting insulin (starting three days post initiation, 5 mg twice-daily (free base)): did not receive any short-acting insulin
- need for exogenous insulin (starting three weeks post initiation, 5 mg twice-daily (free base)): did not receive any exogenous insulin
- pancreatic islet-cell auto-antibodies and anti-insulin auto-antibodies (upon treatment with tofacitinib (Table 1)): reduction

Structure (SMILES): C[C@@H]1CCN(C(=O)CC#N)C[C@@H]1N(C)c1ncnc2[nH]ccc12 [tofacitinib citrate, (3R,4R)-4-methyl-3-(methyl-7H-pyrrolo[2,3-d]pyrimidin-4-ylamino)-β-oxo-1-piperidinepropanenitrile, 2-hydroxy-1,2,3-propanetricarboxylate (1:1)]
- C-Peptide (0.8-3.85) (week 4, 8 mg BID): 2.66
- IA2 Ab (Islet cell Ab Screen) (<0.8) (week 4, 8 mg BID): 43.8
- Insulin (2-19.6) (week 4, 8 mg BID): 17.1
- Insulin Auto Ab (<0.4) (week 4, 8 mg BID): 7.2
- C-Peptide (0.8-3.85) (week 9, 8 mg BID): 1.5
- HgbA1C (week 9, 8 mg BID): 7.2
- Insulin (2-19.6) (week 9, 8 mg BID): 7.8
- C-Peptide (0.8-3.85) (week 10, 8 mg BID): 4.7
- IA2 Ab (Islet cell Ab Screen) (<0.8) (week 10, 8 mg BID): >50
- Insulin (2-19.6) (week 10, 8 mg BID): 34.5
- Insulin Auto Ab (<0.4) (week 10, 8 mg BID): 64
- C-Peptide (0.8-3.85) (week 13, 8 mg BID): 1.43
- Glucose (week 13, 8 mg BID): 104
- IA2 Ab (Islet cell Ab Screen) (<0.8) (week 13, 8 mg BID): 46.2
- Insulin Auto Ab (<0.4) (week 13, 8 mg BID): 6.1
- Islet Cell Ab Titers (week 13, 8 mg BID): 320
- C-Peptide (0.8-3.85) [1]: 1.79
- GAD-65 (<5) [1]: <5
- Glucose [1]: 126
- HgbA1C [1]: 6.1
- IA2 Ab (Islet cell Ab Screen) (<0.8) [1]: 37.7
- Insulin (2-19.6) [1]: 12
- Insulin Auto Ab (<0.4) [1]: 6.6
- Islet Cell Ab Titers [1]: 80
- Glucose [2]: 210
- HgbA1C [2]: 6.1
- Insulin (2-19.6) [2]: 24.8
- Insulin Auto Ab (<0.4) [2]: 4
- Islet Cell Ab Titers [2]: negative
- Insulin Auto Ab (<0.4) [3]: 5.3
- Islet Cell Ab Titers [3]: 20
- C-Peptide (0.8-3.85) [4]: 2.19
- GAD-65 (<5) [4]: <5
- Glucose [4]: 93
- IA2 Ab (Islet cell Ab Screen) (<0.8) [4]: 47.3
- Insulin (2-19.6) [4]: 12
- Insulin Auto Ab (<0.4) [4]: 5
- Islet Cell Ab Titers [4]: negative
- C-Peptide (0.8-3.85) [5]: 1.34
- Glucose [5]: 85
- HgbA1C [5]: 6.2
- IA2 Ab (Islet cell Ab Screen) (<0.8) [5]: 47.7
- Insulin (2-19.6) [5]: 5.4
- Insulin Auto Ab (<0.4) [5]: 4.6
- Islet Cell Ab Titers [5]: 20
- C-Peptide (0.8-3.85) [6]: 2.74
- GAD-65 (<5) [6]: <5
- Glucose [6]: 143
- HgbA1C [6]: 6.3
- IA2 Ab (Islet cell Ab Screen) (<0.8) [6]: 43.8
- Insulin (2-19.6) [6]: 34.3
- Insulin Auto Ab (<0.4) [6]: 4.2
- C-Peptide (0.8-3.85) [7]: 3.17
- IA2 Ab (Islet cell Ab Screen) (<0.8) [7]: 46.5
- Insulin (2-19.6) [7]: 31.1
- Insulin Auto Ab (<0.4) [7]: 2.4
- Islet Cell Ab Titers [7]: 20
- HgbA1C [8]: 6.9
- IA2 Ab (Islet cell Ab Screen) (<0.8) [8]: 17
- Insulin Auto Ab (<0.4) [8]: 2.1
- Islet Cell Ab Titers [8]: negative
- C-Peptide (0.8-3.85) [9]: 2.73
- HgbA1C [9]: 6.5
- IA2 Ab (Islet cell Ab Screen) (<0.8) [9]: 35.7
- Insulin (2-19.6) [9]: 25
- Insulin Auto Ab (<0.4) [9]: 0.9
- Islet Cell Ab Titers [9]: negative
- C-Peptide (0.8-3.85) [10]: 2.14
- GAD-65 (<5) [10]: 66
- Glucose [10]: 97
- HgbA1C [10]: 6.5
- IA2 Ab (Islet cell Ab Screen) (<0.8) [10]: 30
- Insulin (2-19.6) [10]: 14.8
- Insulin Auto Ab (<0.4) [10]: 0.8
- Islet Cell Ab Titers [10]: negative
- C-Peptide (0.8-3.85) [11]: 5.21
- GAD-65 (<5) [11]: 70
- Glucose [11]: 168
- HgbA1C [11]: 6.8
- IA2 Ab (Islet cell Ab Screen) (<0.8) [11]: 25.9
- Insulin (2-19.6) [11]: 47.3
- Insulin Auto Ab (<0.4) [11]: 1
- Islet Cell Ab Titers [11]: negative
- C-Peptide (0.8-3.85) [12]: 4.3
- GAD-65 (<5) [12]: 15
- Glucose [12]: 160
- HgbA1C [12]: 6.2
- IA2 Ab (Islet cell Ab Screen) (<0.8) [12]: 39.4
- Insulin (2-19.6) [12]: 37.2
- Insulin Auto Ab (<0.4) [12]: 0.9
- Islet Cell Ab Titers [12]: negative
- C-Peptide (0.8-3.85) [13]: 1.38
- GAD-65 (<5) [13]: 7
- HgbA1C [13]: 6.5
- IA2 Ab (Islet cell Ab Screen) (<0.8) [13]: 38.8
- Insulin (2-19.6) [13]: 7.7
- Insulin Auto Ab (<0.4) [13]: 0.9
- Islet Cell Ab Titers [13]: negative
- C-Peptide (0.8-3.85) [14]: 1.22
- GAD-65 (<5) [14]: <5
- Glucose [14]: 112
- HgbA1C [14]: 6.3
- IA2 Ab (Islet cell Ab Screen) (<0.8) [14]: 39.4
- Insulin (2-19.6) [14]: 6.4
- Insulin Auto Ab (<0.4) [14]: 1.7
- Islet Cell Ab Titers [14]: negative
- C-Peptide (0.8-3.85) [15]: 1.33
- GAD-65 (<5) [15]: <5
- Glucose [15]: 113
- HgbA1C [15]: 6.2
- IA2 Ab (Islet cell Ab Screen) (<0.8) [15]: 39.2
- Insulin (2-19.6) [15]: 6.6
- Insulin Auto Ab (<0.4) [15]: 0.7
- Islet Cell Ab Titers [15]: negative
- C-Peptide (0.8-3.85) [16]: 1.61
- GAD-65 (<5) [16]: <5
- Glucose [16]: 85
- HgbA1C [16]: 6.4
- IA2 Ab (Islet cell Ab Screen) (<0.8) [16]: 44.5
- Insulin (2-19.6) [16]: 5.6
- Insulin Auto Ab (<0.4) [16]: 0.5
- Islet Cell Ab Titers [16]: negative
- C-Peptide (0.8-3.85) [17]: 2.81
- GAD-65 (<5) [17]: <5
- Glucose [17]: 230
- HgbA1C [17]: 6.9
- IA2 Ab (Islet cell Ab Screen) (<0.8) [17]: 46
- Insulin (2-19.6) [17]: 24.1
- Insulin Auto Ab (<0.4) [17]: 0.5
- Islet Cell Ab Titers [17]: negative
- C-Peptide (0.8-3.85) [18]: 1.68
- GAD-65 (<5) [18]: 105
- Glucose [18]: 278
- HgbA1C [18]: 8.1
- IA2 Ab (Islet cell Ab Screen) (<0.8) [18]: 6.5
- Insulin (2-19.6) [18]: 6.1
- Insulin Auto Ab (<0.4) [18]: <0.4
- Islet Cell Ab Titers [18]: negative
- C-Peptide (0.8-3.85) [19]: 2.88
- GAD-65 (<5) [19]: 131
- Glucose [19]: 148
- HgbA1C [19]: 7.8
- IA2 Ab (Islet cell Ab Screen) (<0.8) [19]: 13.1
- Insulin (2-19.6) [19]: 47.8
- Insulin Auto Ab (<0.4) [19]: <0.4
- Islet Cell Ab Titers [19]: negative
- C-Peptide (0.8-3.85) [20]: 2.36
- GAD-65 (<5) [20]: 48
- Glucose [20]: 148
- HgbA1C [20]: 7.1
- IA2 Ab (Islet cell Ab Screen) (<0.8) [20]: 25.6
- Insulin (2-19.6) [20]: 33.7
- Insulin Auto Ab (<0.4) [20]: 0.5
- Islet Cell Ab Titers [20]: negative
- C-Peptide (0.8-3.85) [21]: 1.41
- GAD-65 (<5) [21]: 24
- Glucose [21]: 170
- HgbA1C [21]: 6.9
- IA2 Ab (Islet cell Ab Screen) (<0.8) [21]: 26.5
- Insulin (2-19.6) [21]: 14.3
- Insulin Auto Ab (<0.4) [21]: 0.7
- Islet Cell Ab Titers [21]: 20
